Measurements: patent publication US7960427B2, “5-hydroxyindole-3-carboxylate derivatives and uses thereof” (priority 2004, dated 2011)
Converted amounts (≈) assume the structure as drawn. Counter-ions that a name gives are not always drawn.

Columns and labels:
HIV-1 protease = molecular target: T1, HIV-1 protease (Human immunodeficiency virus type 1 group M subtype B, UniProt P04585); assay: Anti-HIV-1 protease activity (fluorescence labeled substrate); assay type: biochemical; details: for inhibition ratio at 0.5 ug/ml: sample concentration 0.5 ug/ml; for inhibition ratio at 2.0 ug/ml: sample concentration 2.0 ug/ml; for inhibition ratio at 10 ug/ml: sample concentration 10 ug/ml; for inhibition ratio at 50 ug/ml: sample concentration 50 ug/ml; for inhibition ratio at 250 ug/ml: sample concentration 250 ug/ml
T1 construct: The genetically engineered target enzyme (HIV-1 protease, preserved at −85° C.)
Procedure: HIV-1 protease can cut the fluorescence labeled substrate under optimal condition and reaction system, so the activity of enzyme is determined by the fluorescence in the product of enzymatic reaction. The samples are added into the reaction system to observe the inhibitive effect on the enzyme.
The samples and the reference drug Indinavir ([…].) were dissolved in DMSO or redistilled water for appropriate concentration. Each was diluted 5-fold and then added into the buffer containing fluorescence labeled substrate (MP Co.). The genetically engineered target enzyme (HIV-1 protease, preserved at −85° C.) was added to the buffer and incubated under the optimal reaction condition. The fluorescence was determined by FLUO star Galaxy fluorometer.

HBV DNA = assay: In vitro anti-HBV activity: replication of HBV DNA in 2.2.15 cells (dot hybridization); assay type: cell-based, Hepatitis B virus (HBV); details: for IC50: Hepatitis B virus, read-out: DNA replication IC50; for DNA replication SI: selectivity index
Procedure: (§1) All compounds were evaluated for their anti-HBV activities, namely the ability to inhibit the replication of HBV DNA and the production of HBsAg and HBeAg in HBV-infected 2.2.15 cells.
(§2) The samples were dissolved in DMSO for appropriate concentrations, and then each was diluted 3-fold with culture medium. The 2.2.15 cells were planted into 96-well culture plates. […] The culture supernatants and 2.2.15 cells were collected respectively on the 8th plant day. The secretion concentrations of HBsAg and HBeAg in the culture supernatants were measured by RIA on SPRIA Kit for Detection of HBsAg and HBeAg (Beijing North Institute of Biological Technology), and the replication of HBV DNA was measured by dot hybridization with a^32PdCTP (FuRui Biological Technology Ltd., China).

2.2.15 cells = assay: Cytotoxicity (TC50) in 2.2.15 cells; assay type: cell-based
Procedure: as §1, §2

Row | SMILES | IC50 (HIV-1 protease) | inhibition ratio at 0.5 ug/ml (HIV-1 protease) | inhibition ratio at 2.0 ug/ml (HIV-1 protease) | inhibition ratio at 10 ug/ml (HIV-1 protease) | inhibition ratio at 50 ug/ml (HIV-1 protease) | inhibition ratio at 250 ug/ml (HIV-1 protease) | IC50 (HBV DNA) | DNA replication SI (HBV DNA) | TC50 (2.2.15 cells)
1 | CCOC(=O)c1c(CS(=O)(=O)c2cccc(OC)c2)n(C)c2cc(Br)c(O)c(CN(C)C)c12 [Example 55, Ethyl 6-bromo-4-[(dimethylamino)methyl]-5-hydroxy-1-methyl-2-[(3-methoxyphenyl)sulfonylmethyl]-1H-indole-3-carboxylate] | 49 µM | 2.1 | 6.7 | 0.1 | 30.5 | 98.0 | 2.2 µg/mL (≈ 4.08 µM) | 9.7 | 21.56 µg/mL (≈ 40 µM)
2 | CCOC(=O)c1c(C[S+]([O-])c2ccccc2)n(C)c2cc(Br)c(O)c(Cn3ccnc3)c12 (stereo not drawn) [Example 116, Ethyl 6-bromo-5-hydroxy-4-[(1-imidazolyl)methyl]-1-methyl-2-(phenylsulfinylmethyl)-1H-indole-3-carboxylate] | – | 0.4 | −2.4 | −1.5 | 11.1 | 37.5 | 2.56 µg/mL (≈ 4.96 µM) | 3.17 | 8.12 µg/mL (≈ 15.7 µM)
3 | CCOC(=O)c1c(C[S+]([O-])c2ccc(F)cc2)n(C2CC2)c2cc(Br)c(O)c(CNC(=N)N)c12 (stereo not drawn) [Example 154, Ethyl 6-bromo-1-cyclopropyl-4-(guanidinylmethyl)-5-hydroxy-2-[(4-fluorophenyl)sulfinylmethyl]-1H-indole-3-carboxylate] | 43.5 µM | 3.2 | 13.2 | 4.8 | 19.8 | 109.3 | 5.2 µg/mL (≈ 9.43 µM) | 3.63 | 18.52 µg/mL (≈ 33.6 µM)
4 | CCOC(=O)c1c(C[S+]([O-])c2ccccc2C)n(C)c2cc(Br)c(O)c(CN3CCOCC3)c12 (stereo not drawn) [Example 57, Ethyl 6-bromo-5-hydroxy-1-methyl-4-(morpholinomethyl)-2-[(2-methylphenyl)sulfinylmethyl]-1H-indole-3-carboxylate] | – | 6.4 | 9.2 | 1.9 | 15.5 | 41.0 | 17 µg/mL (≈ 30.9 µM) | 3.03 | 51.53 µg/mL (≈ 93.8 µM)
5 | CCOC(=O)c1c(CSc2ccc(F)cc2)n(C2CC2)c2cc(Br)c(O)c(CN3CCN(C)CC3)c12 [Example 19, Ethyl 6-bromo-1-cyclopropyl-5-hydroxy-4-[(4-methyl-1-piperazinyl)methyl]-2-[(4-fluorophenyl)thiomethyl]-1H-indole-3-carboxylate dihydrochloride] | 232 µM | −5.6 | −8.9 | −8.9 | 20.7 | 63.9 | 13 µg/mL | 2.85 | 37.04 µg/mL
6 | CCOC(=O)c1c(C[S+]([O-])c2ccc(F)cc2)n(C2CC2)c2cc(Br)c(O)c(Cn3ccnc3C)c12 (stereo not drawn) [Example 138, Ethyl 6-bromo-1-cyclopropyl-5-hydroxy-4-[(2-methyl-1-imidazolyl)methyl]-2-[(4-fluorophenyl)sulfinylmethyl]-1H-indole-3-carboxylate] | 111 µM | 6.8 | −2.3 | 6.4 | 12.7 | 75.7 | 5 µg/mL (≈ 8.7 µM) | 3.74 | 18.52 µg/mL (≈ 32.2 µM)
7 | CCOC(=O)c1c(CS(=O)(=O)Cc2ccccc2)n(C)c2cc(Br)c(O)c(CNC(=N)N)c12 [Example 173, Ethyl 6-bromo-4-(guanidinylmethyl)-5-hydroxy-1-methyl-2-(benzylsulfonylmethyl)-1H-indole-3-carboxylate] | – | – | – | – | – | – | 5.04 µg/mL (≈ 9.38 µM) | 4.90 | 24.69 µg/mL (≈ 45.9 µM)
8 | CCOC(=O)c1c(C[S+]([O-])c2ccccc2)n(C)c2cc(Br)c(O)c(Cn3cncn3)c12 (stereo not drawn) [Example 146, Ethyl 6-bromo-5-hydroxy-1-methyl-4-[(1H-1,2,4-triazol-1-yl)methyl]-2-(phenylsulfinylmethyl)-1H-indole-3-carboxylate] | – | – | – | – | – | – | 13.1 µg/mL (≈ 25.3 µM) | 3.06 | 40.0 µg/mL (≈ 77.3 µM)
9 | CCOC(=O)c1c(C[S+]([O-])Cc2ccc(F)cc2)n(C)c2cc(Br)c(O)c(Cn3ccnc3C)c12 (stereo not drawn) [Example 184, Ethyl 6-bromo-5-hydroxy-1-methyl-4-[(2-methyl-1-imidazolyl)methyl]-2-[(4-fluorobenzyl)sulfinylmethyl]-1H-indole-3-carboxylate] | – | – | – | – | – | – | 0.94 µg/mL (≈ 1.67 µM) | 56.83 | 53.42 µg/mL (≈ 95 µM)
10 | CCOC(=O)c1c(C[S+]([O-])c2cccc(C)c2)n(C)c2cc(Br)c(O)c(Cn3ccnc3C)c12 (stereo not drawn) [Example 134, Ethyl 6-bromo-5-hydroxy-1-methyl-4-[(2-methyl-1-imidazolyl)methyl]-2-[(3-methylphenyl)sulfinylmethyl]-1H-indole-3-carboxylate] | – | – | – | – | – | – | 3.8 µg/mL (≈ 6.98 µM) | 19.1 | 53.42 µg/mL (≈ 98.1 µM)
11 | CCOC(=O)c1c(C[S+]([O-])Cc2cccc(F)c2)n(C)c2cc(Br)c(O)c(CN(C)C)c12 (stereo not drawn) [Example 81, Ethyl 6-bromo-4-[(dimethylamino)methyl]-5-hydroxy-1-methyl-2-[(3-fluorobenzyl)sulfinylmethyl]-1H-indole-3-carboxylate] | – | – | – | – | – | – | 0.715 µg/mL (≈ 1.36 µM) | 49.8 | 35.61 µg/mL (≈ 67.8 µM)
12 | CCOC(=O)c1c(C[S+]([O-])c2ccc(C)cc2)n(C)c2cc(Br)c(O)c(CNC(=N)N)c12.Cl (stereo not drawn) [Example 152, Ethyl 6-bromo-4-(guanidinylmethyl)-5-hydroxy-1-methyl-2-[(4-methylphenyl)sulfinylmethyl]-1H-indole-3-carboxylate hydrochloride] | – | – | – | – | – | – | 10.2 µg/mL | 18.8 | 192.45 µg/mL
13 | Nc1ccn([C@@H]2CS[C@H](CO)O2)c(=O)n1 [Example 3TC, Lamivudine, reference compound] | – | – | – | – | – | – | 228 µg/mL (≈ 994 µM) | – | 1600 µg/mL (≈ 6980 µM)
14 | CCOC(=O)c1c(C[S+]([O-])Cc2ccc(F)cc2)n(C)c2cc(Br)c(O)c(CN3CCCCC3)c12 (stereo not drawn) [Example 86, Ethyl 6-bromo-5-hydroxy-1-methyl-4-(piperidinomethyl)-2-[(4-fluorobenzyl)sulfinylmethyl]-1H-indole-3-carboxylate] | – | – | – | – | – | – | 0.64 µg/mL (≈ 1.13 µM) | 11.14 | 7.13 µg/mL (≈ 12.6 µM)
15 | CCOC(=O)c1c(C[S+]([O-])c2ccccc2F)n(C)c2cc(Br)c(O)c(Cn3ccnc3)c12 (stereo not drawn) [Example 125, Ethyl 6-bromo-5-hydroxy-4-[(1-imidazolyl)methyl]-1-methyl-2-[(2-fluorophenyl)sulfinylmethyl]-1H-indole-3-carboxylate] | – | – | – | – | – | – | 8.76 µg/mL (≈ 16.4 µM) | 5.49 | 48.1 µg/mL (≈ 90 µM)
16 | CCOC(=O)c1c(CS(=O)(=O)Cc2ccc(F)cc2)n(C)c2cc(Br)c(O)c(CN3CCCC3)c12 [Example 84, Ethyl 6-bromo-5-hydroxy-1-methyl-4-(1-pyrrolidinylmethyl)-2-[(4-fluorobenzyl)sulfonylmethyl]-1H-indole-3-carboxylate] | – | – | – | – | – | – | 0.58 µg/mL (≈ 1.02 µM) | 42.57 | 24.69 µg/mL (≈ 43.5 µM)
17 | CCOC(=O)c1c(CS(=O)(=O)c2ccccc2)n(C)c2cc(Br)c(O)c(Cn3ccnc3C)c12 [Example 166, Ethyl 6-bromo-5-hydroxy-1-methyl-4-[(2-methyl-1-imidazolyl)methyl]-2-(phenylsulfonylmethyl)-1H-indole-3-carboxylate] | – | – | – | – | – | – | 7.53 µg/mL (≈ 13.8 µM) | 7.09 | 53.42 µg/mL (≈ 97.8 µM)
18 | CCOC(=O)c1c(CS(=O)(=O)Cc2ccc(F)cc2)n(C)c2cc(Br)c(O)c(Cn3ccnc3C)c12 [Example 185, Ethyl 6-bromo-5-hydroxy-1-methyl-4-[(2-methyl-1-imidazolyl)methyl]-2-[(4-fluorobenzyl)sulfonylmethyl]-1H-indole-3-carboxylate] | – | – | – | – | – | – | 1.3 µg/mL (≈ 2.25 µM) | 9.5 | 12.35 µg/mL (≈ 21.3 µM)
19 | CCOC(=O)c1c(CS(=O)(=O)Cc2ccco2)n(C2CC2)c2cc(Br)c(O)c(Cn3ccnc3)c12 [Example 162, Ethyl 6-bromo-1-cyclopropyl-5-hydroxy-4-[(1-imidazolyl)methyl]-2-[(2-furylmethyl)sulfonylmethyl]-1H-indole-3-carboxylate] | – | – | – | – | – | – | 51.7 µg/mL (≈ 92 µM) | 2.48 | 128.30 µg/mL (≈ 228 µM)
